From patent US9849145B2, “Pharmaceutical composition containing honeysuckle extract and antibiotics, pharmaceutical kit, and use of honeysuckle extract for preparation of drug” (priority 2011, dated 2017)
“And” between values parts separate entries of the source, which are not always exact repeats. Equal values may be shown once.

Experiments:
Klebsiella pneumoniae [1] = system: Klebsiella pneumoniae; set-up: key: Resistant; Sensitive; Intermediate degree (moderate resistance); details: clinical isolate, specimen 31494, sputum; cited from earlier work
[2] = system: AMP-resistant Klebsiella pneumoniae; assay: AMP-resistant bacterium infection model in mice (mortality, intraperitoneal colony count); type: in vivo, KM mice; details: for protection / control of infection by AMP alone (in words): AMP-resistant bacterium infection model-AMP intervention control group
Text: This example studies the antimicrobial effects in vivo of the honeysuckle extracts N1 to N4 which are respectively combined with antibiotics, and the antimicrobial effects were compared with that of the honeysuckle water decoction W combined with the antibiotic.
The experimental strain is Klebsiella pneumoniae which was isolated from the sputum specimen of the patient in the ward of the Fourth People's Hospital of Jinan in 2010, and detection of the drug resistant spectrum is shown in Table 6 below.
(§1) KM mice were purchased from the Experimental Animal Center of Shandong University, weighing 16-18 g, with half male and half female and animal license number of SCXK (Lu) 20090001.
(§2) There were 5 control groups with 10 mice in each group: normal control group, AMP-sensitive bacterium quality control model control group (AMPS) and the treatment group thereof, AMP-resistant bacterium model control group (AMPR) and the treatment group thereof;
There were 15 experimental groups with 10 mice in each group: N1 to N4 and W were respectively combined with AMP high-dose group, AMP medium-dose group and AMP low-dose group.
(§3) After being grouped, the animals were injected intraperitoneally with 2.5×10^7 (Klebsiella pneumoniae)*100 μL^−1 per animal, then immediately treated by administration, and the route of administration alternated between tail intravenous injection and intraperitoneal injection (the sterile normal saline was used as the solvent for drugs except W, since continuous tail intravenous injection causes damage to tail veins, therefore the tail intravenous injection and intraperitoneal injection were performed alternatively), the animal was injected once a day for 5 days continuously. The efficacy of each group was evaluated according to the animal mortality and intraperitoneal bacterial count.
(§4) Intraperitoneal bacterium counting of dead animals: the animals were injected intraperitoneally with 1 ml sterile normal saline immediately after they died, and the abdomens of the animals were kneaded gently for 1 min, the ascites was drawn and coated on the plate after gradient dilution, and cultured at 37° C. overnight, then the colonies were counted;
(§5) Intraperitoneal bacterium counting of surviving animals: the mice were administrated continuously for 5 days and sacrificed through dislocation 2 h after the last administration, then the mice were injected intraperitoneally with 1 ml sterile normal saline, and the abdomens of the mice were kneaded gently for 1 min, the ascites was drawn and coated on the plate after gradient dilution, and cultured at 37° C. overnight, then the colonies were counted, colony count results of the control groups are shown in table 9 below, and colony count results of the experimental groups are shown in table 10 below.

Escherichia coli = system: Escherichia coli; set-up: key: Resistant; Sensitive; Intermediate degree (moderate resistance); details: clinical isolate, specimen 32042, urine; cited from earlier work
AMP-sensitive strain = assay: AMP-sensitive bacterium infection model in mice (quality control); type: in vivo, KM mice; details: for protection / control of infection by AMP alone (in words): AMP-sensitive bacterium infection model-AMP intervention control group
Text: The control strain is clinically isolated AMP-sensitive strain, which was isolated from the sputum specimen of the patient in the ward of the Fourth People's Hospital of Jinan in 2010, and preserved until today.
as §1, §2, §3, §4, §5

Pseudomona aeruginosa = system: Pseudomona aeruginosa; set-up: key: Resistant; Sensitive; Intermediate degree (moderate resistance); details: clinical isolate, specimen 12; cited from earlier work
Klebsiella pneumoniae [3] = system: Klebsiella pneumoniae; set-up: key: Resistant; Sensitive; Intermediate degree (moderate resistance); details: clinical isolate, specimen 31853, urine; cited from earlier work
Klebsiella pneumoniae [4] = assay: Bacterial inhibition test of antibiotics, Klebsiella pneumoniae; type: cell-based; details: 2-fold dilutions from 1 mg/mL to 1:2048; 37° C. 20 h; 630 nm
Experimental: In this example, bacterial inhibition effects of antibiotics on the four multiple resistant bacteria in Tables 1-4 were measured.
The activated bacterium suspension was diluted to a concentration equivalent to 0.5 McFarland turbidity standard, and diluted with the culture medium of MH broth in a proportion of 1:1000, and then added into each well in amount of 100 μL per well.
The antibiotics resisted by the above four multiple resistant bacteria were diluted to 1:2048 (2^−11) from 1 mg/mL (initial concentration) by 2-fold dilution, and then the original solution and different concentrations of diluted antibiotics were added respectively into the well containing the bacterium suspension, with each well added with 100 μL, and the minimum inhibitory concentration (MIC) of each antibiotic was recorded finally.
Meanwhile, a bacterium solution control (that is, bacterium solution plus an equal volume of culture medium) and a blank culture medium control were set.
Cultivation was performed at 37° C. for 20 h, and detection was performed at 630 nm by the microplate reader, and the bacterial inhibition rate is calculated according to formula (2), and the data obtained is put into formula (1) to calculate specific distance, and the specific distance is added to the virus dilution index with pathologic rate less than 50% to obtain half inhibitory concentration (Reed-Muench method). […]

[5] = AMP intervention control group: AMP 16.80 mg per mouse alone, n = 10
[6] = AMP-sensitive bacterium model, AMP 16.80 mg per mouse alone, n = 10

In the case of `CC1(C)S[C@@H]2[C@H](NC(=O)[C@H](N)c3ccccc3)C(=O)N2[C@H]1C(=O)O` [AMP, ampicillin], the “drug resistant spectrum of the experimental strain of Klebsiella pneumoniae” value (Klebsiella pneumoniae [1]) is given as “R”, the “Mortality (%)” value [2, 5] is given as 100% and the “Number of deaths 1st day” value [2, 5] is given as 0. For the same molecule, the “Number of deaths 2nd day” value [2, 5] was 7, the “Number of deaths 3rd day” value [2, 5] was 2 and the “Number of deaths 4th day” value [2, 5] was 1. For the same molecule, the “Number of deaths 5th day” value [2, 5] was 0, the “Number of deaths Total” value [2, 5] was 10 and the “protection / control of infection by AMP alone (in words)” value (shortened to “protection / control of infection”) [2] was “cannot be protected (all of animals died)”. The “protection / control of infection” value ([2]; listed as ampicillin) was “cannot be controlled by ampicillin”, the “Bacterium isolation positive rate (%)” value ([2]; AMPR model, AMP 16.80 mg per mouse alone) was 100% and the “Intraperitoneal colony count of animals” value ([2]; AMPR model, AMP 16.80 mg per mouse alone, one value per mouse Nos. 1-10, unit not given in Table 9 (Table 10 note: CFU/mL)) was 3.557 × 10^10 and 3.478 × 10^10 and 3.578 × 10^10 and 3.487 × 10^10 and 3.550 × 10^10 and 3.373 × 10^10 and 3.360 × 10^10 and 6.617 × 10^9 and 4.800 × 10^9 and 5.467 × 10^9. For the same molecule, the “resistance of Escherichia coli to the antibiotic” value (Escherichia coli) was “R”, the “protection / control of infection” value (AMP-sensitive strain) was “protected effectively” and the “protection / control of infection” value (AMP-sensitive strain; listed as ampicillin) was “sensitive to ampicillin”. For the same molecule, the “Mortality (%)” value (AMP-sensitive strain; [6]) was 0%, the “Number of deaths 1st day” value (AMP-sensitive strain; [6]) was 0 and the “Number of deaths 2nd day” value (AMP-sensitive strain; [6]) was 0. The “Number of deaths 3rd day” value (AMP-sensitive strain; [6]) was 0, the “Number of deaths 4th day” value (AMP-sensitive strain; [6]) was 0 and the “Number of deaths 5th day” value (AMP-sensitive strain; [6]) was 0. For the same molecule, the “Number of deaths Total” value (AMP-sensitive strain; [6]) was 0, the “Bacterium isolation positive rate (%)” value (AMP-sensitive strain; AMPS model, AMP 16.80 mg per mouse alone) was 10% and the “Intraperitoneal colony count of animals” value (AMP-sensitive strain; AMPS model, AMP 16.80 mg per mouse alone, one value per mouse Nos. 1-10, unit not given in Table 9 (Table 10 note: CFU/mL)) was 1.054 × 10^1 and 0 (9×). The “resistance of Pseudomona aeruginosa to the antibiotic” value (Pseudomona aeruginosa) was “R”, the “resistance of Klebsiella pneumoniae to the antibiotic” value (Klebsiella pneumoniae [3]) was “R” and the “bacterial inhibition effect of the antibiotic” value (Klebsiella pneumoniae [4]) was “inhibitory effect on Klebsiella pneumoniae in the first two dilutions (1 mg/mL, 0.5 mg/mL)”.
